This note sets out measurements from patent US20230121867A1, “COMPOSITIONS AND METHODS FOR TREATING DISEASES AND CONDITIONS BY DEPLETION OF MITOCHONDRIAL OR GENOMIC DNA FROM CIRCULATION” (Cedars-Sinai Medical Center, priority 2019, published 2023).

Experiment [1] has as its system TRAMPC2 with wild type fibroblasts allografts. In words: Sub-renal capsule allograft of TRAMPC2 with wild type fibroblasts in C57BL/6 mice. Type of experiment: in vivo, mouse. On the procedure: FIG. 3, panels A-E, depicts Role of C3a in PCa progression. A PCa cell lines incubated in the absence and presence of C3a receptor agonist peptide (48 hr) was western blotted for cell survival and proliferation protein expression. B C57BL/6 mice were allografted with tissue recombinants of luciferase-expressing TRAMPC2 with wild type (wt) or Tlr9^-/-fibroblasts. The mice were treated with saline or […], SB290157. Luciferase bioluminescence was used to image tumor progression. C Mean tumor volume (mm^3) and standard deviation (S.D.) for each treatment condition are depicted (n=8). D H&E and immunohistochemistry for phosphorylated-AKT, phosphorylated-histone-H3 and TUNEL staining of the tumor tissues were performed and quantitated. […] The scale bar represents 10 µm.
To validate the observation of C3a signaling, we allografted mouse prostatic fibroblasts with PCa epithelia into syngeneic C57B/6 mice. We grafted either wild type or TLR9-knockout fibroblasts and recombined them with luciferase-expressing TRAMPC2 cells under the renal capsule. After the tumors were visible by bioluminescent imaging, the mice were treated with either vehicle (control) or SB290157, a C3aR antagonist. […] We were only able to perform immunohistochemistry on the grafts with wild type fibroblasts and TRAMPC2, as not enough tissue was available from grafts with TLR9-knockout fibroblasts. […] The activation of AKT, localized by phosphorylated AKT staining, was elevated in the tumor cells of mouse allografted with wild type fibroblasts and reversed in SB290157 treated mice.
Complement anaphylatoxins have a wide spectrum of proinflammatory effects. C3a is particularly regarded for the chemotaxis of mast cells, basophils and eosinophils. As T lymphocytes are confirmed regulators of tumor progression and known to respond to C3a, we measured the impact of C3a antagonism on T cell recruitment to the tumors.

A further experiment has as its system PC3 and CAF co-culture. In words: 3D organotypic co-culture of PC3 and CAF, EpCAM+/Ki67+ FACS. The format is cell-based. As to conditions: PC3 and CAF 3D co-culture, 48 hours. On the procedure:
(§1) Significance was determined by repeated measures ANOVA.
3D organotypic co-culture: 3D organotypic co-culture was performed in a collagen matrix. PC3 and CAF were combined in a 1:3 ratio in collagen matrix contain 50% rat tail collagen I, 20% of matrigel, 10% of 10x DMEM medium and 1x ready DMEM 5%, 1x ready RPMI 5%, FBS 5% and Nu serum 5%. Cells were treated with docetaxel and SB290157 for 48 hours after 72 hours of expansion in the matrix. The cells were dissociated from the matrix with collagenase and dispase for Ki67 FACS analysis.

The test system of a further experiment is PC3 cells. Kind of experiment: MTT viability drug interaction study, Chou-Talalay method. The format is cell-based. As to conditions: low doses of SB290157 with docetaxel. On the procedure: as §1
Statistical analysis: Experiments were done a minimum of three times. Results were shown in terms of mean ± S.D. Student’s t-test and one-way ANOVA were used for comparisons among groups and repeated measured ANOVA was applied for determining the significance of two or more data series. Statistical tests utilized are reported in the figure legends, along with the associated P values was performed by using Origin software (OriginLab, Northampton, MA). Cell viability was examined by using MTT assay as indicated by the manufacturer (Thermo Fisher, Canoga Park, CA) for the calculation of synergistic drug interactions was performed by Chou-Talalay method (R Package).

In experiment [2] the test system is xenografts of CAF and PC3 cells. In words: Subcutaneous xenograft of PC3 and CAF in male nude mice.
Text: A Subcutaneous xenografts of PC3 and CAF tumor volumes were longitudinally measured. […] Representative images show each group of mice (inset). […] C Immunolocalization ofphosphorylated-TAK1, complement C3, phosphorylated-AKT, phosphorylated-histoneH3 and TUNEL expression in tumor tissues (brown) was counterstained with hematoxylin (blue). The corresponding bar graph illustrate the mean and S.D. expression of the respective staining (n=5). Data represent the mean ± S.D. by one-way ANOVA (*P <0.05; **P <0.01). The scale bar represents 10 µm.
Data represent the mean ± S.D. among groups by oneway ANOVA (ns - not significant). C H&E images of resulting tumors from each treatment group of subcutaneous xenografted mice.
Animal experiments and cultured cells: Male C57BL/6 mice aged 7-8 weeks were housed in a pathogen-free environment at the Cedars-Sinai Medical Center Animal Facility under the approval of the Institutional Animal Care and Use Committee (# 3679). Sub-renal capsule was performed with wild type mouse fibroblasts (6×10^5) or TLR9^-/- mouse fibroblasts (6×10^5) combining with mouse prostate epithelial cell TRAMP-C2 (2×10^5) . Treatment with SB290157 (1 mg/kg; i.p. daily) was started after two weeks of grafting and continued for five weeks. All mouse kidney, spleen, lymph nodes were harvested after five weeks of treatment were fixed in paraffin embedded for IHC or dissociated for FACS analysis. Subcutaneous xenograft was done in male nude mice aged 7-8 weeks in combination of PC3 (5×10^5) and CAF (15×10^5). […] Harvested tissues were fixed in paraffin embedded for IHC or dissociated for immunoblot analysis.
Immunodetection: Paraffin embedded tissue were processed for Immunohistochemical localization was performed with antibodies against p-AKT, p-TAK, p-histoneH3 (Cell Signaling, Danvers, MA), C3 (Santa Cruz Biotechnology, Santa Cruz, CA), and TUNEL (Thermo Fisher Scientific Inc.) as previously described before (52, 53). All the slides were scanned using Leica SCN400 (Leica Micro System, Buffalo Grove, IL) and analyzed by Tissue IA Optimizer (Leica). The values of positively stained cells were measured in an unbiased manner. C3a concentration of cultured medium and serum was assayed by sandwich ELISA using human C3a ELISA kit (BD Bioscience, San Jose, CA) according to the manufacturer’s instructions. Western blots separated by 10, 12, or 15% SDS-polyacrylamidegels were incubated with primary antibodies for TLR9, DEC205 (LS Bio Seattle, WA), phospho-TAK1, TAK1, phospho-AKT, AKT, phosphor-ERK1/2, ERK, BCL2, beclin, CHOP (Cell Signaling), LC3 (Abcam, Cambridge, MA), C3 (Santa Cruz Biotechnology) and p62 (ProgenBiotechnik, Heidelberg, Germany). Western blots were visualized using alkaline phosphatase-conjugated secondary antibodies (Sigma-Aldrich). The ELISA for anaphylatoxin C3a for performed according to manufacturer guidelines (LSBio Inc.).
Setting [3] is: western blot, SB290157 with docetaxel.

On to `NC(N)=NCCC[C@H](NC(=O)COCC(c1ccccc1)c1ccccc1)C(=O)O` [SB290157], for which the tumor size result in experiment [1] (1 mg/kg i.p. daily, versus vehicle treated mice) is “significantly smaller tumor size”. Also, in experiment [1] (FACS of tumor tissues), the “CD3+ T cells recruited to the tumors” value is reported as “similarly recruited” and the “CD8+ T cell activation (CD69+ expression)” value is given as “appreciably downregulated”. In experiment [1] (immunohistochemistry of grafts), the “activation of AKT (phosphorylated AKT staining)” value was “reversed” and the “cell death (TUNEL staining)” value is listed as “elevate cell death”. The “tumor cell mitosis (phosphorylated-histone H3 expression), tumor proliferation” value in experiment [1] (immunohistochemistry of grafts, 1 mg/kg i.p. daily, 1 mg/kg) is reported as “significantly diminish tumor proliferation”. Besides, the “tumor cell mitosis (phosphorylated-histone H3 expression), tumor proliferation” value in experiment [1] (immunohistochemistry of grafts, 1 mg/kg i.p. daily, listed as SB29157, 1 mg/kg) was “significantly lower”. Moreover, the “EpCAM+/Ki67+ proliferative epithelial fraction” value with PC3 and CAF co-culture is on record as “restored the sensitivity of PC3 cells to docetaxel”. Also, the “fractional inhibitory concentration index” value in the experiment with PC3 cells was less than 0.5. In experiment [2] (SB290157 with docetaxel compared to docetaxel alone), the “apoptosis (TUNEL)” value was “did not result in greater apoptosis”. In experiment [2] (combined treatment of docetaxel (6 mg/kg/week) and SB290157 (1 mg/kg IP every day), P < 0.05), the tumor growth result is “significantly limited tumor growth”. In addition, in experiment [2] (immunohistochemistry, combined treatment of docetaxel and SB290157 versus docetaxel), the “phosphorylation of AKT and phosphorylated histone-H3 (cell survival pathway and mitosis)” value was “significantly diminished”. Besides, in experiment [2] (setting [3]), the “AKT and ERK1/2 phosphorylation in tumor tissues” value is “reduced AKT and ERK1/2 phosphorylation”; the “Blc2 in tumor tissues” value is “reduced”.
